Experimental findings from patent US20100016401A1, “3-AZA-BICYCLO[3.1.0]HEXANE DERIVATIVES” (Actelion Phamaceuticals Ltd., priority 2006, published 2010) are described below.

One assay concerns the target T1, human orexin-1 receptor (Homo sapiens, UniProt O43613).
T1 construct: expressed in transfected cells; host or cells: CHO (Chinese hamster ovary) cells, grown under G418 selection
T1 sequence (O43613 1-425): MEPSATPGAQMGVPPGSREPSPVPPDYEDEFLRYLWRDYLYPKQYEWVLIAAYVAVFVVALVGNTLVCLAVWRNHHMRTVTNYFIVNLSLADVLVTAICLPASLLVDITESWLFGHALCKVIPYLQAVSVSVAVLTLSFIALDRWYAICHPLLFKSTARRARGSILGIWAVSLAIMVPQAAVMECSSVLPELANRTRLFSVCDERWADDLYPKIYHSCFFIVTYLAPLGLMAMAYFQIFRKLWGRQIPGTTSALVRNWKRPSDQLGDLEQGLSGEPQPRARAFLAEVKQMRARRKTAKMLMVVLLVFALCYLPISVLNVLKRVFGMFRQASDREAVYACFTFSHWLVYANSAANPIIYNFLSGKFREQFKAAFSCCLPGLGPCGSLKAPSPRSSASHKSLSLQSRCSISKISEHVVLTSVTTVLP
Description: Intracellular calcium measurements (FLIPR), orexin receptor antagonistic activity, OX1. The assay is classed as cell-based. The note with it: CHO cells expressing human orexin-1 receptor, 10 nM orexin-A as agonist. As to the method: (§1) The orexin receptor antagonistic activity of the compounds of formula (I) is determined in accordance with the following experimental method.
(§2) Intracellular Calcium Measurements:
(§3) Chinese hamster ovary (CHO) cells expressing the human orexin-1 receptor and the human orexin-2 receptor, respectively, are grown in culture medium (Ham F-12 with L-Glutamine) containing 300 μg/ml G418, 100 U/ml penicillin, 100 μg/ml streptomycin and 10% inactivated fetal calf serum (FCS). The cells are seeded at 80,000 cells/well into 96-well black clear bottom sterile plates (Costar) which have been precoated with 1% gelatine in Hanks' Balanced Salt Solution (HBSS). All reagents are from Gibco BRL. The seeded plates are incubated overnight at 37° C. in 5% CO2.
(§4) Human orexin-A as an agonist is prepared as 1 mM stock solution in MeOH: water (1:1), diluted in HBSS containing 0.1% bovine serum albumin (BSA) and 2 mM HEPES for use in the assay at a final concentration of 10 nM.
(§5) Antagonists are prepared as 10 mM stock solution in DMSO, then diluted in 96-well plates, first in DMSO, then in HBSS containing 0.1% bovine serum albumin (BSA) and 2 mM HEPES.
(§6) On the day of the assay, 100 μl of loading medium (HBSS containing 1% FCS, 2 mM HEPES, 5 mM probenecid (Sigma) and 3 μM of the fluorescent calcium indicator fluo-3 AM (1 mM stock solution in DMSO with 10% pluronic acid) (Molecular Probes) is added to each well.
(§7) The 96-well plates are incubated for 60 min at 37° C. in 5% CO2. The loading solution is then aspirated and cells are washed 3 times with 200 μl HBSS containing 2.5 mM probenecid, 0.1% BSA, 2 mM HEPES. 100 μl of that same buffer is left in each well.
(§8) Within the Fluorescent Imaging Plate Reader (FLIPR, Molecular Devices), antagonists are added to the plate in a volume of 50 μl, incubated for 20 min and finally 100 μl of agonist is added. Fluorescence is measured for each well at 1 second intervals, and the height of each fluorescence peak is compared to the height of the fluorescence peak induced by 10 nM orexin-A with buffer in place of antagonist.
A general note: A change in cytosolic calcium serves as a functional read-out for many receptors and channels.

For a further assay, the target named is T2, human orexin-2 receptor (Homo sapiens, UniProt O43614).
T2 construct: expressed in transfected cells; host or cells: CHO (Chinese hamster ovary) cells, grown under G418 selection
T2 sequence (O43614 1-444): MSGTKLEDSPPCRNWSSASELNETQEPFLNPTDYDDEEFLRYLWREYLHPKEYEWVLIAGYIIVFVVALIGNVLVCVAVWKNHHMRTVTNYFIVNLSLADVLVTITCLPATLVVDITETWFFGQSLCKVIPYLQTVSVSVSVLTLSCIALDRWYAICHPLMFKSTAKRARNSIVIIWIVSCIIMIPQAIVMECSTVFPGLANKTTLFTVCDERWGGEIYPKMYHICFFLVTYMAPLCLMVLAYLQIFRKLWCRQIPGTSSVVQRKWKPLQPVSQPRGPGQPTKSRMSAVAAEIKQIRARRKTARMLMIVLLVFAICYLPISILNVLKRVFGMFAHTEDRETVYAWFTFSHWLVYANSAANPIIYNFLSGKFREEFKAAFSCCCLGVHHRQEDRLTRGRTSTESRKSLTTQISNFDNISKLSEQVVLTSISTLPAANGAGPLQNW
Briefly: Intracellular calcium measurements (FLIPR), orexin receptor antagonistic activity, OX2. Particulars: CHO cells expressing human orexin-2 receptor, 10 nM orexin-A as agonist. The assay is classed as cell-based. As to the method:
as §1, §2, §3, §4, §5, §6, §7, §8

One may read the IC50 as the concentration that gives 50% inhibition. For the compound `Cc1ccc(C(=O)N2C[C@H]3C[C@H]3[C@H]2CNC(=O)c2cccc3c2OCCO3)c(C#CC2CC2)c1` (racemic) [Example 379, 2,3-Dihydro-benzo[1,4]dioxine-5-carboxylic acid [(1R*,2S*,5S*)-3-(2-cyclopropylethynyl-4-methyl-benzoyl)-3-aza-bicyclo[3.1.0]hex-2-ylmethyl]-amide], the IC50 on human orexin-1 receptor was found to be 0.373 µM; at human orexin-2 receptor it was 0.061 µM.
With `Cc1ccc(C(=O)N2C[C@H]3C[C@H]3[C@H]2CNC(=O)c2c3c(cc4c2OCC4)OCC3)c(-c2cccc(F)c2)c1` (relative stereo) [Compound 318], the IC50 stood at 0.196 µM on human orexin-1 receptor and 0.114 µM at human orexin-2 receptor.
For `Cc1nc2sccn2c1C(=O)NC[C@@H]1[C@@H]2C[C@@H]2CN1S(=O)(=O)c1ccccc1OC(F)(F)F` (relative stereo) [Example 3, 6-methyl-imidazo[2,1-b]thiazole-5-carboxylic acid [(1R*,2S*,5S*)-3-(2-trifluoromethoxy-benzenesulfonyl)-3-aza-bicyclo[3.1.0]hex-2-ylmethyl]-amide], the values for the IC50 at human orexin-1 receptor and on human orexin-2 receptor were 0.158 µM and 0.348 µM, respectively.
For `Cc1nc(C(=O)N2C[C@H]3C[C@H]3[C@H]2CNC(=O)c2ccc(F)cc2)c(-c2cccc(F)c2)s1` (relative stereo) [Example 8, 4-fluoro-N-{[(1R*,2S*,5S*)-3-[5-(3-fluoro-phenyl)-2-methyl-thiazole-4-carbonyl]-3-aza-bicyclo[3.1.0]hex-2-ylmethyl}-benzamide], in that order: 0.994 µM and 0.096 µM.
For the compound `CCc1ccc(-c2sc(C)nc2C(=O)N2C[C@H]3C[C@H]3[C@H]2CNC(=O)c2cccc3occc23)cc1` (relative stereo) [Example 16, benzofuran-4-carboxylic acid {(1R*,2S*,5S*)-3-[5-(4-ethyl-phenyl}2-methyl-thiazole-4-carbonyl]-3-aza-bicyclo[3.1.0]hex-2-ylmethyl}-amide], the IC50 at human orexin-1 receptor was 0.143 µM; at human orexin-2 receptor it was 0.033 µM.
For `Nc1nc(-c2ccccc2C(=O)N2C[C@H]3C[C@H]3[C@H]2CNC(=O)c2cccc3occc23)cs1` (relative stereo) [Example 30, benzofuran-4-carboxylic acid {(1R*,2S*,5S*)-3-[2-(2-amino-thiazol-4-yl)benzoyl]-3-aza-bicyclo[3.1.0]hex-2-ylmethyl}-amide], in that order: 1.21 µM and 0.032 µM.
`O=C(NC[C@@H]1[C@@H]2C[C@@H]2CN1C(=O)c1cccc2c1-c1ccccc1C2)c1cccc2occc12` (relative stereo) [Example 31, benzofuran-4-carboxylic acid [(1R*,2S*,5S*)-3-(9H-fluorene-4-carbonyl)-3-aza-bicyclo[3.1.0]hex-2-ylmethyl]-amide]: the IC50 on human orexin-1 receptor worked out at 0.24 µM; at human orexin-2 receptor, 0.051 µM.
As for `O=C(NC[C@@H]1[C@@H]2C[C@@H]2CN1C(=O)c1nccnc1-c1ccccc1)c1cccc2occc12` (relative stereo) [Example 32, benzofuran-4-carboxylic acid [(1R*,2S*,5S*)-3-(3-phenyl-pyrazine-2-carbonyl)-3-aza-bicyclo[3.1.0]hex-2-ylmethyl]-amide], the IC50 at human orexin-1 receptor stood at 2.96 µM; on human orexin-2 receptor it was 0.091 µM.
As for `COc1ccc(-c2ocnc2C(=O)N2C[C@H]3C[C@H]3[C@H]2CNC(=O)c2cccc3occc23)cc1` (relative stereo) [Example 33, benzofuran-4-carboxylic acid {(1R*,2S*,5S*)-3-[5-(4-methoxy-phenyl)-oxazole-4-carbonyl]-3-aza-bicyclo[3.1.0]hex-2-ylmethyl}-amide], the values for the IC50 on human orexin-1 receptor and at human orexin-2 receptor were 2.17 µM and 0.094 µM, respectively.
On the same counts, the results for `O=C(NC[C@@H]1[C@@H]2C[C@@H]2CN1C(=O)c1ccccc1-c1ccc(Cl)cc1)c1cccc2occc12` (relative stereo) [Example 42, benzofuran-4-carboxylic acid [(1R*,2S*,5S*)-3-(4′-chloro-biphenyl-2-carbonyl)-3-aza-bicyclo[3.1.0]hex-2-ylmethyl]-amide] are 0.237 µM and 0.05 µM.
On the same counts, the results for `Cc1nc(C(=O)N2C[C@H]3C[C@H]3[C@H]2CNc2cnc3cc(F)c(F)cc3n2)c(-c2ccc(F)cc2)s1` (relative stereo) [Example 60, {(1R*,2S*,5S*)-2-[(6,7-difluoro-quinoxalin-2-ylamino)-methyl]-3-aza-bicyclo[3.1.0]hex-3-yl}-[5-(4-fluoro-phenyl)-2-methyl-thiazol-4-yl]-methanone] are 0.596 µM and 0.076 µM.
Regarding `O=C(c1ccccc1-c1ccccc1)N1C[C@H]2C[C@H]2[C@H]1CNc1ncc(Br)cn1` (relative stereo) [Example 64, biphenyl-2-yl-{(1R*,2S*,5S*)-2-[(5-bromo-pyrimidin-2-ylamino)methyl]-3-aza-bicyclo[3.1.0]hex-3-yl}-methanone], the half-maximal inhibitory concentration (IC50) on human orexin-1 receptor was 0.162 µM; on human orexin-2 receptor, 0.242 µM.
On the same counts, the results for `Cc1cccc(-c2sc(C)nc2C(=O)N2C[C@H]3C[C@H]3[C@H]2CNC(=O)c2sc(Br)nc2C)c1` (relative stereo) [Example 74, 2-bromo-4-methyl-thiazole-5-carboxylic acid [(1R*,2S*,5S*)-3-(2-methyl-5-m-tolyl-thiazole-4-carbonyl)-3-aza-bicyclo[3.1.0]hex-2-ylmethyl]-amide] are 0.099 µM and 0.016 µM.
Turning to `Cc1cccc(-c2sc(C)nc2C(=O)N2C[C@H]3C[C@H]3[C@H]2CNC(=O)c2sc(C)nc2C)c1` (relative stereo) [Example 82, 2,4-dimethyl-thiazole-5-carboxylic acid [(1R*,2S*,5S*)-3-(2-methyl-5-m-tolyl-thiazole-4-carbonyl)-3-aza-bicyclo[3.1.0]hex-2-ylmethyl]-amide], the IC50 was found to be 0.864 µM at human orexin-1 receptor and 0.05 µM on human orexin-2 receptor.
As for `Cc1cccc(-c2sc(C)nc2C(=O)N2C[C@H]3C[C@H]3[C@H]2CNC(=O)c2cnc(CC(C)C)c(C)c2)c1` (relative stereo) [Example 100, 6-isobutyl-5-methyl-N-[(1R*,2S*,5S*)-3-(2-methyl-5-m-tolyl-thiazole-4-carbonyl)-3-aza-bicyclo[3.1.0]hex-2-ylmethyl]-nicotinamide], the IC50 at human orexin-1 receptor turned out to be 1.3 µM; at human orexin-2 receptor, 0.08 µM.
As for `Cc1cccc(-c2sc(C)nc2C(=O)N2C[C@H]3C[C@H]3[C@H]2CNC(=O)c2cccc3c2OC(C)(C)C3)c1` (relative stereo) [Example 108, 2,2-Dimethyl-2,3-dihydro-benzofuran-7-carboxylic acid [(1R*,2S*,5S*)-3-(2-methyl-5-m-tolyl-thiazole-4-carbonyl)-3-aza-bicyclo[3.1.0]hex-2-ylmethyl]-amide], the IC50 on human orexin-1 receptor came out at 0.131 µM; at human orexin-2 receptor it was 0.101 µM.
Consider `Cc1cccc(-c2sc(C)nc2C(=O)N2C[C@H]3C[C@H]3[C@H]2CNC(=O)c2cn(C)c3ccccc23)c1` (relative stereo) [Example 114, 1-Methyl-1H-indole-3-carboxylic acid [(1R*,2S*,5S*)-3-(2-methyl-5-m-tolyl-thiazole-4-carbonyl)-3-aza-bicyclo[3.1.0]hex-2-ylmethyl]-amide], for which the IC50 at human orexin-1 receptor was 0.093 µM; on human orexin-2 receptor it was 0.124 µM.
